Data from patent US8193224B2, “Medicinal composition for prevention or treatment of parasitic protozoan infection” (Fujifilm Corporation, priority 2004, dated 2012).
Like-named read-outs stand apart in the source and are kept apart here. Values belong to the compound of their own block, whether it stands above or below them.

Key:
Type in all cases: cell-based
[1] = system: Plasmodium falciparum FCR-3 strain; test: Drug sensitive-Plasmodium falciparum growth inhibition screening test; conditions: for EC50: Plasmodium falciparum, FCR3, Erythrocyte, read-out: 50% growth inhibition concentration P. falciparum FCR; for Selective toxicity: chemotherapy index = EC50 mouse FM3A cells / EC50 drug sensitive P. falciparum
Method: In the present example, protozoa of Plasmodium falciparum FCR-3 strain was used. RPMI-1640 medium sterilized with a filter was used in the experiment. pH was adjusted to 7.4, and human serum was added to be 10%. Malarial parasites were cultured under 5% O2 concentration, 5% CO2 concentration, 90% N2 concentration, and at a temperature of 36.5° C.
Cultured malarial parasite infected-erythrocytes were collected by centrifugation, and washed in a medium containing serum. Non-infected erythrocytes were added so that the primary infection rate is 0.3%. Hematocrit level at that time was 3%. The compounds of the present invention to be used in the test and the positive target drugs (chloroquine, quinine) were dissolved in dimethylsulfoxide (DMSO) to make a test solution of a predetermined concentration. The test solution was added in an amount of 5 to 10 μl in a 24-well culture plate. To the control, DMSO was added in an amount of 10 μL/well. Test solutions were taken by duplicates. Subsequently, Plasmodium falciparum culture solution previously prepared to a predetermined concentration was added, pipetted quietly, and suspended in the medium similarly. Culture plate was cultured for 72 hours in a CO2—O2—N2(5%, 5%, 90%) incubator. Thin layer smear preparations were prepared for each well, and after performing Diff-Quick staining, the preparations were measured with a microscope (oil immersion, 1,000×), and malarial parasite infection rates of the test solution added-group and of the control group were calculated. Growth inhibition rate was calculated with the following formula from the malarial parasite infection rate obtained in the above, to obtain a 50% growth inhibition concentration (EC50). Growth inhibition rate (%)={1−(b−a)/(c−a)}×100 a: early infection rate b: infection rate when test solution was added c: infection rate of the control

[2] = Growth inhibition test of mouse FM3A cells
Method: F28-7 strain which is a wild-type of the mouse breast cancer derived FM3A cell was used. As for a medium, immobilized fetal bovine serum was added to a ES medium at 2%, which medium was cultured under CO2 concentration 5%, at 37° C. Doubling time of FM3A cells under that condition was approximately 12 hours. Pre-culture was conducted and cells which have entered the logarithmic growth phase were diluted in a medium to be 5×10^4 cells/mL Those prepared when measuring malarial activity were used as a sample. Sample solution was added in an amount of to 10 μL in a 24-well culture plate (the final concentration was 1×10^−4 to 1×10^−5, by adding media etc). Compounds were taken by duplicates, and wells added with 10 μL DMSO were prepared at the same time as a control. Next, cultured cell suspension previously prepared was added in an amount of 990 to 995 μL, pipetted quietly and suspended in a medium similarly. After culturing 48 hours, the cells were counted with a cell controller (CC-108, Toa. Medical Electrics) for each well. Growth rate was calculated with the following formula, to obtain a 50% growth inhibition rate (EC50). Growth rate (%)={(C−A)/(B−A)}×100 A: primary cell count B: cell count of the control, 2 days after C: cell count of wells added with a sample, 2 days after
Cell growth inhibiting activity was calculated from cell count of wells added with a sample, and cell count of the control.

[3] = system: Leishmania donovani (MHOM/ET/67/L82 strain); test: Leishmania protozoa growth inhibition screening test; conditions: chemotherapy index = EC50 rat L6 cells / EC50 leishmania protozoa
[4] = system: Trypanosoma brucei rhodensiense (STIB 900 strain); test: African trypanosome protozoa growth inhibition screening test; conditions: chemotherapy index = EC50 rat L6 cells / EC50 African trypanosome protozoa
[5] = system: Trypanosoma brucei rhodensiense (STIB 900 strain); test: as above; conditions: Trypanosoma brucei, STIB900; STIB 900 strain, blood stream form, 72 hours, Alamar Blue; read-out: 50% growth inhibiting concentration Trypanosoma brucei rhod.
Method: In the present example, protozoa of Trypanosoma brucei rhodensiense (STIB 900 strain), a trypamastigote living in blood stream, was used. The medium used in the experiment was a MEM medium which was sterilized with a filter and supplemented with 25 mM N-2-hydroxyethylpiperazine-2-ethansulfonic acid […]), 1 g/L glucose, 1% MEM non-essential amino acid, 0.2 mM 2-mercaptoethanol, 2 mM sodium pyruvate, 0.1 mM hypoxanthine, and 15% heat-treated horse serum. The protozoa was cultured in an atmosphere of CO2 concentration 5%, at a temperature of 37° C.
The compounds of the present invention to be used in the present test and the positive target drug (melarsoprol) were dissolved in DMSO to make a test solution of a predetermined concentration. A medium containing 8×10^3 protozoa, and a test solution containing a drug of a predetermined concentration or a drug-free DMSO were added to wells of a 96-well culture plate, and subsequently, medium was added so that the amount in each well becomes 100 μL. Test solutions were taken by duplicates. After culturing the culture plate for 72 hours in an incubator, growth inhibition activity was tested. Test was conducted as follows. 10 μL of Alamar Blue aqueous solution was added to each well, and the resultant was further cultured for 2 hours. Next, the culture plate was placed on a fluorescent micro-plate reader (Spectramax Gemeni XS; US Molecular Device), radiated at an excited wavelength of 536 nm. Fluorescent intensity was measured at 588 nm, to calculate the trypanosome protozoa infected rate of the test solution added-group, and of the control group. From the protozoan infection rate obtained in the above, growth inhibition rate was calculated with the following formula, to obtain a 50% growth inhibition concentration (EC50). Growth inhibition rate (%)={1−(b−a)/(c−a)}×100 a: early infection rate b: infection rate when test solution was added c: infection rate of the control

[6] = system: Trypanosoma cruzi (Tulahuen C2C4 strain); test: American trypanosome protozoa growth inhibition screening test
Method: In the present example, amastigote and trypomastigote infected with rat L6 cells of protozoa of Trypanosoma cruzi (Tulahuen C2C4 strain) were used. As medium used in the test, RPMI 1640 medium containing L6 cells was supplemented so that L-glutamine (200 mM) becomes 1%, fetal bovine serum becomes 10%, which was cultured under CO2 concentration 5%, at 37° C.
The compounds of the present invention to be used in the test and the positive target agent (benznidazole) were dissolved in DMSO to make a test solution of a predetermined concentration. A medium containing 5×10^3 protozoa was added to wells of a 96-well culture plate, and pre-cultured for 48 hours. After replacing the medium, test solution containing drug of a predetermined concentration or a drug-free DMSO was added. Test solutions were taken by duplicates. After culturing the culture plate in an incubator for 96 hours, growth inhibition activity was tested. Test was conducted as follows.
50 μL of CPRG/Nonidet was added to each well, and allowed to rest for 2 to 6 hours. Next, the culture plate was placed on a fluorescent micro-plate reader, and the absorbance was measured at 540 nm. Growth inhibition rate was calculated with the following formula based on the protozoan infection rate which was obtained by calculating trypanosome infection rate of the test solution added group and control group, to obtain a 50% growth inhibition concentration (EC50). Growth inhibition rate (%)={1−(b−a)/(c−a)}×100 a: early infection rate b: infection rate when test solution was added c: infection rate of the control

[7] = Growth inhibition test of rat L6 cells; conditions: L6 cells (rat skeletal myoblast)
Method: Rat derived-L6 cells (rat skeletal myoblast cell) were used. As medium, RPMI1640 medium was supplemented so that L-glutamin (200 mM) is 1%, and fetal bovine serum 10%, and the medium was cultured under CO2 concentration 5%, at 37° C. The compounds of the present invention and the target drugs to be used in the test were dissolved in DMSO, to make a test solution of a predetermined concentration. Pre-culture was conducted and medium containing cells which have entered the logarithmic growth phase was taken to wells of a 96-well culture plate. Then, a test solution containing drug of a predetermined concentration or a drug-free DMSO was added. Test solutions were taken by duplicates. Culture plate was cultured for 72 hours in an incubator, to test the growth inhibition activity. Test was conducted as follows.
10 μl of Alamar Blue aqueous solution was added to each well, and the resultant was further cultured for 2 hours. Next, the culture plate was placed on a fluorescent micro-plate reader (Spectramax Gemeni XS; US Molecular Device), radiated at an excited wavelength of 536 nm. Fluorescent intensity was measured at 588 nm, and residual rate of L6 cells of the test solution added group, and that of the control was calculated. Based on the cell residual rate obtained in the above, growth inhibition rate to L6 cells was calculated, to obtain a 50% growth inhibition concentration (EC50). Growth inhibition rate (%)={(C−A)/(B−A)}×100 A: primary cell count B: cell count of control, 3 days after C: cell count of wells added with a sample, 3 days after […]

[8] = system: Leishmania donovani (MHOM/ET/67/L82 strain); test: Leishmania protozoa growth inhibition screening test; conditions: Leishmania donovani; MHOM/ET/67/L82 strain amastigote, pH 5.4, 72 hours, Alamar Blue; read-out: 50% growth inhibition concentration Leishmania donovani
Method: In the present example, Leishmania donovani (MHOM/ET/67/L82 strain) was used. Protozoa was subcultured in Syrian Golden hamster, from which an amastigote was obtained. In the experiment, SM medium supplemented with 10% heat-treated bovine fetal serum was used, which was adjusted to pH 5.4, and cultured in an atmosphere of 5% CO2 concentration, at 37° C.
The compounds of the present invention to be used in the present test and the positive target drug (miltefosine) were dissolved in DMSO to make a test solution of a predetermined concentration. After adding a medium containing a predetermined number of protozoa to wells of a 96-well culture plate and pre-treating, concentration of the amastigote was measured with CASY cell analysis system (Scharfe, Germany). Then, test solution containing a drug of a predetermined concentration or a drug-free DMSO was added. Test solutions were taken by duplicates. After culturing the culture plate for 72 hours in an incubator, growth inhibition activity was tested. Test was conducted as follows.
10 μL of Alamar Blue aqueous solution was added to each well, and the resultant was further cultured for 2 hours. Next, the culture plate was placed on a fluorescent micro-plate reader (Spectramax Gemeni XS; US Molecular Device), radiated at an excited wavelength of 536 nm. Fluorescent intensity was measured at 588 nm, and infection rate of leishmania protozoa of the test solution added-group and control was calculated, to obtain a 50% growth inhibition concentration (EC50). Growth inhibition rate (%)={1−(b−a)/(c−a)}×100 a: early infection rate b: infection rate when test solution was added c: infection rate of the control

[9] = system: Plasmodium falciparum K1 strain; test: Chloroquine resistant-Plasmodium falciparum growth inhibition screening test
Method: In the present example, protozoa of Plasmodium falciparum K1 strain was used. RPMI-1640 medium sterilized with a filter to which human serum was added to be 5%, was used in the experiment. Malarial parasites were cultured under 3% O2 concentration, 4% Co2 concentration, 93% N2 concentration, and at a temperature of 37° C.
The compounds of the present invention to be used in the present test and the positive target drug (chloroquine) were dissolved in DMSO to make a test solution of a predetermined concentration. Cultured malarial parasite infected-erythrocytes were collected by centrifugation, and diluted with non-infected erythrocyte so that the early infection rate is 0.15%. Hematocrit level at that time was 2.5%. 200 μL of malaria infected solution was added to wells of a 96-well culture plate, and adjusted by adding a test solution containing drug of a predetermined concentration or a drug-free DMSO. Test solutions were taken by duplicates. After culturing for 48 hours at 37° C., 0.5 μCi radioactive tritium (3H)-labeled hypoxanthine was added to each well. After further culturing for 24 hours under the same conditions, it was collected on a glass fiber filter and washed with distilled water. Radiation intensity was measured with a beta plate liquid scintillation counter (Wallac), and malarial parasite infection rates of the test solution added group and of the control group were calculated. Growth inhibition rate was calculated with the following formula based on the malarial parasite infection rate obtained in the above, to obtain a 50% growth inhibition concentration (EC50). Growth inhibition rate (%)={1−(b−a)/(c−a)}×100 a: early infection rate b: infection rate when test solution was added c: infection rate of the control

[10] = drug sensitive FCR-3 strain, infected erythrocytes, cultured 72 hours, microscopy

- EC50 [1, 10]: 100 nM
Compound: CCn1c(=O)/c(=C/C=C2\Sc3ccc4ccccc4c3N2C)s/c1=C\c1sc2ccc3ccccc3c2[n+]1CC [A-2]
- Selective toxicity [1]: 8
- EC50 at 48 h ([2]; mouse): 800 nM

- EC50 [1, 10]: 75 nM
Compound: CCn1c(=O)/c(=C/C=C2\Sc3ccc4ccccc4c3N2C)s/c1=C\c1scc(C)[n+]1CC [A-3]
- Selective toxicity [1]: 20
- EC50 at 48 h ([2]; mouse): 1500 nM

The remaining lines, values behind:

Compound: CCN1C=CC=C/C1=C\C=c1/s/c(=C\c2cc[n+](CC)c3ccccc23)n(CC)c1=O [A-11]
- EC50 [1, 10]: 600 nM
- Selective toxicity [1]: >23
- EC50 at 48 h ([2]; mouse): > 14000 nM

Compound: CCC[n+]1c(/C=c2\s/c(=C\C=C3/SCCN3CC)c(=O)n2CC)sc2c3ccccc3ccc21 [A-16]
- Selective toxicity [3]: 120
- Selective toxicity [4]: 31
- EC50 [5]: 30 nM
- EC50 ([6]; Trypanosoma cruzi, Tulahuen C2C4 strain in rat L6 cells, 96 hours, CPRG/Nonidet, read-out: 50% growth inhibition concentration Trypanosoma cruzi): 90 nM
- Selective toxicity ([6]; chemotherapy index = EC50 rat L6 cells / EC50 American trypanosome protozoa): 10
- EC50 at 72 h ([7]; Alamar Blue (Table 3), read-out: 50% growth inhibiting concentration Cytotoxicity L6): 940 nM
- EC50 [8]: 8 nM

Compound: C=C[C@H]1C[N@@]2CC[C@H]1C[C@H]2[C@H](O)c1ccnc2ccc(OC)cc12 [quinine, reference compound]
- EC50 [1, 10]: 110 nM
- Selective toxicity [1]: 910
- EC50 at 48 h ([2]; mouse): 100000 nM

Compound: CCN(CC)CCCC(C)Nc1ccnc2cc(Cl)ccc12 (centres unmarked) [chloroquine, reference compound]
- EC50 ([1]; 72 h): 18 nM
- Selective toxicity [1]: 1780
- EC50 at 48 h ([2]; mouse FM3A cells, 48 hours, cell count (Table 1), read-out: 50% growth inhibition concentration Cytotoxicity FM3A): 32000 nM

Compound: CCN1CCS/C1=C\C=c1/s/c(=C\c2sc3c4ccccc4ccc3[n+]2CCO)n(CC)c1=O [A-17]
- Selective toxicity [3]: 4800
- EC50 ([9]; Plasmodium falciparum, 72 h, chloroquine resistant K1 strain, 3H-hypoxanthine, 48 + 24 hours, read-out: 50% growth inhibition concentration P. falciparum K1): 38 nM
- Selective toxicity ([9]; chemotherapy index = EC50 rat L6 cells / EC50 chloroquine resistant P. falciparum): 1400
- Selective toxicity [4]: 570
- EC50 [5]: 93 nM
- EC50 at 72 h ([7]; Alamar Blue (Table 2), read-out: 50% growth inhibition concentration Cytotoxicity L6): 53000 nM
- EC50 [8]: 11 nM
